3 compounds from PMC12543186, “Discovery of C-12 dithiocarbamate andrographolide analogue as a novel antioxidant and α-glucosidase inhibitors: In vitro and in silico studies” (PLOS One, 2025) can be followed below.

The nature of assay [1]: DPPH radical scavenging activity. The procedure: The DPPH radical scavenging activity was conducted to thoroughly evaluate the antioxidant potential of andrographolide and its analogues. We modified the assay employing the Sekhon-Loodu and Rupasinghe methods. A DPPH solution was prepared in absolute ethanol, with a concentration of 200 μM. Next, 100 μL of DPPH solution was mixed with 100 μL of the sample in a 96-well plate. The mixture was then incubated for 30 minutes at room temperature. Following incubation, we measured the absorbance at 517 nm using a microplate reader. We tested the antioxidant properties of the compounds at a concentration of 500 μM to detect the weak-to-moderate antioxidants while addressing solubility limitations and minimizing assay artefacts, consistent with previous research. The DPPH radical scavenging activity was precisely expressed as a percentage of DPPH inhibition (% DPPH Inhibition). We selected candidates based on their higher inhibitory activity and prepared various concentrations of these candidates for testing. α-tocopherol, also known as vitamin E, was employed as a positive control. The % DPPH Inhibition was calculated as follows:
%DPPH Inhibition=(1–{A/B})×100
Where A was the absorbance of the DPPH with sample, and B was the absorbance of the DPPH with vehicle (blank).
On the technique in general: DPPH is a stable violet radical that fades when it is reduced.

Assay [2] concerns the target T1, α-glucosidase from Saccharomyces cerevisiae (Saccharomyces cerevisiae, UniProt P38158). Nature of the assay: α-glucosidase inhibition activity (p-NPG substrate). The class given is biochemical. Particulars: for α-glucosidase inhibition (%), Mean: 2000 μM. As for the experimental part: An in vitro α-glucosidase inhibitory assay is commonly used to evaluate the inhibitory effects of various compounds on the enzyme α-glucosidase, which is involved in carbohydrate digestion. Inhibiting this enzyme results in slower glucose absorption, which can be beneficial for managing postprandial blood sugar levels in diabetic conditions. This assay was modified from the methods described by Yusuf et al.. The procedure involved mixing 25 μL of the sample, 150 μL of phosphate buffer saline (PBS) pH 7.4, and 75 μL of 10 mM p-NPG. The mixture was incubated at 37 °C for 10 min. Next, 50 μL of α-glucosidase enzyme from Saccharomyces cerevisiae at a concentration of 0.1 U/mL was added, then incubated at 37 °C for 10 min. To terminate the reaction, […] of 0.1 M sodium carbonate (Na2CO3) was added to the mixture. The absorbance was measured using a microplate reader. The percentage of α-glucosidase inhibition was calculated as follows:
α−glucosidase inhibition(%)=(1–{A−B/C−D})×100
Where A was the absorbance of the sample with α-glucosidase enzyme, B was the absorbance of the sample, C was the absorbance of vehicle with α-glucosidase enzyme, and D was the absorbance of the vehicle (blank).

A short description of assay [3]: Ferric reducing antioxidant power (FRAP) activity. The note with it: 500 μM; third replicate column. As for the experimental part:
The FRAP activity assay was performed to assess the reducing power ability to reduce ferric ions (Fe^3+) to ferrous ions (Fe^2+), following the established method described by Sekhon-Loodu and Rupasinghe. The FRAP reagent was freshly prepared by combining 300 mM acetate buffer pH 3.6, 10 mM 2,4,6- Tri(2-pyridyl)-s-triazine (TPTZ) dissolved in 40 mM HCl, and 20 mM FeCl3 in a ratio of 10:1:1. Ferrous sulfate (FeSO4) was used as a standard, with ascorbic acid serving as a control. The assay was conducted in a 96-well plate by mixing 20 μL of the sample, standard, or positive control with 80 μL of the FRAP solution. The mixture was then incubated for 20 minutes at room temperature, after which we measured absorbance at 595 nm using a microplate reader. The results were expressed as FRAP value, reported as ascorbic acid equivalent in μM (AAE, μM), providing a definitive measure of reducing power.

Assay [4] concerns the target T1, α-glucosidase from Saccharomyces cerevisiae. As to the kind of experiment: Surface plasmon resonance, steady-state affinity. The class given is binding. The note with it: SPR steady-state affinity model, 25 °C, immobilized yeast α-glucosidase; read-out: dissociation constant (KD). As for the experimental part:
All experiments were conducted using a Biacore X100 instrument at 25 °C with a running buffer of 1X PBS-P+ (10 mM phosphate buffer pH 7.4, 2.7 mM KCl, 137 mM NaCl, 0.05% Tween 20) supplemented with 5% DMSO. Compounds were initially dissolved in DMSO to a final concentration of 14 mM. The stock solution was then diluted to 700 μM in 1.05X PBS-P+ to prepare a compound solution containing 1X PBS-P+ with 5% DMSO. This compound solution was utilized to prepare the required concentrations for injections into the Biacore system. α-glucosidase from Saccharomyces cerevisiae was immobilized onto a CM5 chip following standard amine coupling procedures: the CM5 chip, containing channel 1 and 2, was activated with an injection of NHS/EDC mixture with a contact time of 540 s at a flow rate of 10 µL/min. This was followed by multiple injections of α-glucosidase dissolved in 10 mM sodium acetate pH 4.0 (50 µg/mL) onto channel 2, also with a contact time of 540 s at a flow rate of 10 µL/min. Both channels were inactivated by an injection of 1M ethanolamine at a flow rate of 10 µL/min for 540 s. An immobilization level of 3300 RU of α-glucosidase was achieved.
Multi-cycle affinity studies were conducted with a 100 s association phase and a 60 s dissociation phase, using a flow rate of 30 µL/min. Compounds were injected onto the chip at increasing concentrations of 7, 21, 70, 210, and 490 μM. Binding measurements were taken after reference subtraction of channel 1 (no immobilized α-glucosidase) and after subtracting the results from a blank injection with zero analyte concentration. All data evaluation was performed with Biacore X100 evaluation software (version 2.0).
A general note: Surface plasmon resonance follows binding to a sensor surface in real time, without labels.

[5] abbreviates: read-out: α-glucosidase inhibition (%), Mean, 31.2 μM.
[6] abbreviates: read-out: α-glucosidase inhibition (%), Mean, 62.5 μM.
Setting [7] is: read-out: α-glucosidase inhibition (%), Mean, 125 μM.
[8] abbreviates: read-out: α-glucosidase inhibition (%), Mean, 250 μM.
Where [9] appears, read: read-out: α-glucosidase inhibition (%), Mean, 500 μM.
[10] abbreviates: read-out: α-glucosidase inhibition (%), Mean, 1000 μM.
Setting [11] is: read-out: α-glucosidase inhibition (%), Mean, 2000 μM.
Setting [12] is: read-out: α-glucosidase inhibition (%), replicate 1, 31.2 μM, first replicate column.
[13] abbreviates: read-out: α-glucosidase inhibition (%), replicate 1, 62.5 μM, first replicate column.
The mark [14] stands for this setting: read-out: α-glucosidase inhibition (%), replicate 1, 125 μM, first replicate column.
[15] abbreviates: read-out: α-glucosidase inhibition (%), replicate 1, 250 μM, first replicate column.
Where [16] appears, read: read-out: α-glucosidase inhibition (%), replicate 1, 500 μM, first replicate column.
The mark [17] stands for this setting: read-out: α-glucosidase inhibition (%), replicate 1, 1000 μM, first replicate column.
[18] abbreviates: read-out: α-glucosidase inhibition (%), replicate 1, 2000 μM, first replicate column.
Where [19] appears, read: read-out: α-glucosidase inhibition (%), replicate 2, 31.2 μM, second replicate column.
[20] abbreviates: read-out: α-glucosidase inhibition (%), replicate 2, 62.5 μM, second replicate column.
[21] abbreviates: read-out: α-glucosidase inhibition (%), replicate 2, 125 μM, second replicate column.
[22] abbreviates: read-out: α-glucosidase inhibition (%), replicate 2, 250 μM, second replicate column.
The mark [23] stands for this setting: read-out: α-glucosidase inhibition (%), replicate 2, 500 μM, second replicate column.
[24] abbreviates: read-out: α-glucosidase inhibition (%), replicate 2, 1000 μM, second replicate column.
Setting [25] is: read-out: α-glucosidase inhibition (%), replicate 2, 2000 μM, second replicate column.
[26] abbreviates: read-out: α-glucosidase inhibition (%), replicate 3, 31.2 μM, third replicate column.
Setting [27] is: read-out: α-glucosidase inhibition (%), replicate 3, 62.5 μM, third replicate column.
[28] abbreviates: read-out: α-glucosidase inhibition (%), replicate 3, 125 μM, third replicate column.
Setting [29] is: read-out: α-glucosidase inhibition (%), replicate 3, 250 μM, third replicate column.
[30] abbreviates: read-out: α-glucosidase inhibition (%), replicate 3, 500 μM, third replicate column.
The mark [31] stands for this setting: read-out: α-glucosidase inhibition (%), replicate 3, 1000 μM, third replicate column.
The mark [32] stands for this setting: read-out: α-glucosidase inhibition (%), replicate 3, 2000 μM, third replicate column.

Structures are written as SMILES. Read-outs that look alike come from different tables or passages of the source.

T1 sequence (P38158 whole entry): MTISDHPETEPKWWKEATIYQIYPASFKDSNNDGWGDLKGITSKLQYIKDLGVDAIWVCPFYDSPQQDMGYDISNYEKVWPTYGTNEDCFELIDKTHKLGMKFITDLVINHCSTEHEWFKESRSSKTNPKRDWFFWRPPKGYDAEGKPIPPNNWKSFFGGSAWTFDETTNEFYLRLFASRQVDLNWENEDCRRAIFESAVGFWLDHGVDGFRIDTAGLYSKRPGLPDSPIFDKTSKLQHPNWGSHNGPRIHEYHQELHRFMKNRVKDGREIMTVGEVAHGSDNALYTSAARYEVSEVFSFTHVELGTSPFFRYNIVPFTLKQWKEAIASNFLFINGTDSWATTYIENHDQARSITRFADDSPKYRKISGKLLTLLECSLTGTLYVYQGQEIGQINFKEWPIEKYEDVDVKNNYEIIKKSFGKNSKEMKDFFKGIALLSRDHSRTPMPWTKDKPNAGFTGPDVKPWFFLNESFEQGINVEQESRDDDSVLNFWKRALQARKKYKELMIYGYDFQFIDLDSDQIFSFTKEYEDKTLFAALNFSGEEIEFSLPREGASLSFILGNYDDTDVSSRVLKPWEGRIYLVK

Turning to `Cc1c(C)c2c(c(C)c1O)CC[C@@](C)(CCC[C@H](C)CCC[C@H](C)CCCC(C)C)O2` [α-tocopherol], the IC50 (as a rule, the concentration that gives 50% inhibition) in assay [1] (200 μM DPPH solution) was roughly 25 µM.

Turning to `C=C1CC[C@@H]2[C@](C)(CO)[C@H](O)CC[C@@]2(C)[C@@H]1C/C=C1/C(=O)OC[C@H]1O` [Andrographolide], the “α-glucosidase inhibition (%), Mean” value in assay [2] was 21.1432%. Moreover, in assay [2] (concentration range up to 2000 μM, read-out: IC50 (α-glucosidase inhibitory activity)), the IC50 is greater than 2000 µM. In addition, the inhibition (usually the change of the read-out against control, counted positive when it falls) at 31.2 µM was 0.0652% in assay [2] (setting [5]), -0.3% in assay [2] (setting [12]), 1.47% in assay [2] (setting [19]) and -0.976% in assay [2] (setting [26]). The inhibition at 62.5 µM in assay [2] (setting [6]) is -0.749%; in assay [2] (setting [13]), 2.19%; in assay [2] (setting [20]), 3.06%; in assay [2] (setting [27]), -7.49%. Moreover, the inhibition at 125 µM was 4.88% in assay [2] (setting [7]), 6.76% in assay [2] (setting [14]), 3.19% in assay [2] (setting [21]) and 5.68% in assay [2] (setting [28]). Moreover, the inhibition at 250 µM in assay [2] (setting [8]) was 1.93%; in assay [2] (setting [15]), -2.97%; in assay [2] (setting [22]), 3.6%; in assay [2] (setting [29]), 5.16%. Also, the inhibition at 500 µM in assay [2] (setting [9]) is 11.9%; in assay [2] (setting [16]), 13.1%; in assay [2] (setting [23]), 12%; in assay [2] (setting [30]) it was 10.6%. Further, the inhibition at 1000 µM in assay [2] (setting [10]) was 13.6%; in assay [2] (setting [17]), 17.1%; in assay [2] (setting [24]) it was 13.5%; in assay [2] (setting [31]), 11%. Besides, the inhibition at 2000 µM in assay [2] (setting [11]) was determined as 21.1%; in assay [2] (setting [18]), 22.5%; in assay [2] (setting [25]), 21%; in assay [2] (setting [32]), 19.9%. Moreover, the “FRAP, Ascorbic acid equivalent, replicate 3” value in assay [3] is on record as -2.0327 AAE, μM. In addition, the Kd (usually the free concentration of one partner at which half of the binding sites on the other are occupied at equilibrium, for simple one-to-one binding) in assay [4] was determined as 137 ± 85.1 µM. Further, the “% Inhibition (DPPH), replicate 1” value in assay [1] (500 μM, first replicate column) came to 17.9296%. The “% DPPH Inhibition, Mean” value in assay [1] (500 μM, mean of n = 3) was determined as 14.4808%. The “% Inhibition (DPPH), replicate 2” value in assay [1] (500 μM, second replicate column) is reported as 11.6610%. The “% Inhibition (DPPH), replicate 3” value in assay [1] (500 μM, third replicate column) is listed as 13.8517%.

With `C[C@H]1O[C@H](O[C@H]2[C@H](O)[C@@H](O)[C@@H](O[C@H]3[C@H](O)[C@@H](O)C(O)O[C@@H]3CO)O[C@@H]2CO)[C@H](O)[C@@H](O)[C@@H]1N[C@H]1C=C(CO)[C@@H](O)[C@H](O)[C@H]1O` (stereo partly drawn) [Acarbose, acarbose], the “α-glucosidase inhibition (%), Mean” value in assay [2] stood at 38.3925%. Moreover, the inhibition at 31.2 µM stood at 6.67% in assay [2] (setting [5]), 5.58% in assay [2] (setting [12]), 5.89% in assay [2] (setting [19]) and 8.54% in assay [2] (setting [26]). Further, the inhibition at 62.5 µM in assay [2] (setting [6]) was determined as 3.73%; in assay [2] (setting [13]) it was 3.74%; in assay [2] (setting [20]), 3.63%; in assay [2] (setting [27]) it was 3.82%. Further, the inhibition at 125 µM in assay [2] (setting [7]) was 7.12%; in assay [2] (setting [14]), 6.97%; in assay [2] (setting [21]), 7.34%; in assay [2] (setting [28]), 7.06%. Besides, the inhibition at 250 µM is 10.6% in assay [2] (setting [8]), 10.5% in assay [2] (setting [15]), 10.7% in assay [2] (setting [22]) and 10.5% in assay [2] (setting [29]). Also, the inhibition at 500 µM in assay [2] (setting [9]) was determined as 31.1%; in assay [2] (setting [16]) it was 31.2%; in assay [2] (setting [23]), 31.1%; in assay [2] (setting [30]), 31.1%. The inhibition at 1000 µM in assay [2] (setting [10]) amounted to 35.9%; in assay [2] (setting [17]), 36%; in assay [2] (setting [24]) it was 36.7%; in assay [2] (setting [31]) it was 34.8%. The inhibition at 2000 µM in assay [2] (setting [11]) was 38.4%; in assay [2] (setting [18]), 37.5%; in assay [2] (setting [25]), 39.4%; in assay [2] (setting [32]), 38.3%.
